Experimental data taken from PMC3660597, “Investigation of Specificity Determinants in Bacterial tRNA-Guanine Transglycosylase Reveals Queuine, the Substrate of Its Eucaryotic Counterpart, as Inhibitor” (PLoS ONE, 2013).
Positions count from the first letter of the chain named. Like-named read-outs stand apart in the source and are kept apart here.

How the values were obtained:
[1] = target: T1, Z. mobilis Tgt ("wild type" Tgt = Tgt(Tyr106Phe)) (Zymomonas mobilis, UniProt P28720, Y106F/C158V/A232S/V233G); assay: X-ray crystal structure of complex; format: binding
T1 construct: recombinant from pET9d-ZM-Y106F in E. coli BL21(DE3)/pLysS, purified; homodimer; all variants including "wild type" carry Tyr106Phe
T1 sequence (P28720 2-386 Y106F/C158V/A232S/V233G): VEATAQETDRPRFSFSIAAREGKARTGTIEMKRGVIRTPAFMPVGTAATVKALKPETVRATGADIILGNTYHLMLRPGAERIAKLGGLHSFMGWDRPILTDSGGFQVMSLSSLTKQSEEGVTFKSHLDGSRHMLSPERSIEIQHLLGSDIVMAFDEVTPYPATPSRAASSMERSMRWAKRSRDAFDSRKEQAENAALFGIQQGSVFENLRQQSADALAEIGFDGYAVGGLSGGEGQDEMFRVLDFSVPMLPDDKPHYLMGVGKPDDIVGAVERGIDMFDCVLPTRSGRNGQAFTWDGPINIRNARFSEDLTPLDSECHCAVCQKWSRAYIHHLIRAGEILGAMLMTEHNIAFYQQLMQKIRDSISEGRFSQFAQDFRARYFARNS

[2] = target: T2, Z. mobilis Tgt ("wild type" Tgt = Tgt(Tyr106Phe)) (Zymomonas mobilis, UniProt P28720, Y106F); assay: inhibition of [[…]-3H]-guanine incorporation into tRNA(Tyr); format: biochemical; conditions: read-out: K ic
T2 construct: recombinant from pET9d-ZM-Y106F in E. coli BL21(DE3)/pLysS, purified; homodimer; all variants including "wild type" carry Tyr106Phe
Target sequence in this assay (P28720 2-386 Y106F/C158V): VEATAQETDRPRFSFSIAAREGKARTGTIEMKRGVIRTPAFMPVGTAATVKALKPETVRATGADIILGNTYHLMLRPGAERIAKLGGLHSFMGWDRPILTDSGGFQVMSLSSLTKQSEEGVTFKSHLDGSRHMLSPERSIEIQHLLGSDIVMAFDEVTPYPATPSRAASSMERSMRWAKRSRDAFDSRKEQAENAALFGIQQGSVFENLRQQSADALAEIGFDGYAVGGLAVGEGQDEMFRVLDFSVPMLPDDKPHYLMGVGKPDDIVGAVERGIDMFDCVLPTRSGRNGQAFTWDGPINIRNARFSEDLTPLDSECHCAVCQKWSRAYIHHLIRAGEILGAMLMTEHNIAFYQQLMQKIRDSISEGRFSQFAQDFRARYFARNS

[3] = target: T2, Z. mobilis Tgt ("wild type" Tgt = Tgt(Tyr106Phe)); assay: as above; format: biochemical; conditions: read-out: K ic; remark: listed apart in the source
Target sequence in this assay (P28720 2-386 Y106F): as the sequence (P28720 2-386 Y106F/C158V) above, with V157C counted along it

[4] = target: T3, Z. mobilis Tgt ("wild type" Tgt = Tgt(Tyr106Phe)) (Zymomonas mobilis, UniProt P28720, C158V/V233G/Y106F); assay: as above; format: biochemical; conditions: read-out: K ic
T3 construct: recombinant from pET9d-ZM-Y106F in E. coli BL21(DE3)/pLysS, purified; homodimer; all variants including "wild type" carry Tyr106Phe
T3 sequence (P28720 2-386 Y106F/C158V/V233G): T1 sequence (P28720 2-386 Y106F/C158V/A232S/V233G) with S231A

[5] = target: T4, Z. mobilis Tgt ("wild type" Tgt = Tgt(Tyr106Phe)) (Zymomonas mobilis, UniProt P28720, V233G/Y106F); assay: as above; format: biochemical; conditions: read-out: K ic
T4 construct: recombinant from pET9d-ZM-Y106F in E. coli BL21(DE3)/pLysS, purified; homodimer; all variants including "wild type" carry Tyr106Phe
T4 sequence (P28720 2-386 Y106F/V233G): T1 sequence (P28720 2-386 Y106F/C158V/A232S/V233G) with V157C, S231A

SMILES	X-ray crystal structure of complex ([1]; soaking)	Ki [2] [µM]	Ki [3] [µM]	X-ray crystal structure of complex ([1]; cocrystallisation)	Ki [4] [µM]	Ki [5] [µM]
NCc1c[nH]c2nc(N)[nH]c(=O)c12 [preQ1, 7-aminomethyl-7-deazaguanine]	in complex with preQ1 and in complex with queuine	–	–	–	–	–
Nc1nc2[nH]cc(CN[C@H]3C=C[C@H](O)[C@@H]3O)c2c(=O)[nH]1 [queuine, 7-(((4,5-cis-dihydroxy-2-cyclopenten-1-yl)amino)methyl)-7-deazaguanine]	–	3.8 ± 0.5	3.8 ± 0.6	in complex with preQ1 and in complex with queuine	8.9 ± 1.2	3.1 ± 0.2
